These results are taken from article PMC6814236, “Monitoring and characterizing soluble and membrane-bound ectonucleotidases CD73 and CD39” (PLoS ONE, 2019).

The structures appear in SMILES notation. “Also recorded” adds a separate entry of the source.

In assay [1] the test system is T1, cN-II (Human cytosolic 5'-Nucleotidase).
T1 construct: purchased NovoCIB SAS
Put plainly: Enzyme activity of purified cytosolic cN-II (AMP-Glo assay). The following applies: cN-II 0.6 mU/Rx, 10μM AMP, 37°C for 30 min. The assay is classed as biochemical. The protocol: • 2 Determination of enzyme activity of purified cytosolic cN-II. Activity of purified cN-II (Human cytosolic 5'-Nucleotidase) was determined using 25μl reaction buffer (50mM HEPES, pH 7.0, 100mM KCl, 20mM MgCl2, 5mM DTT, 2.5mM dATP, and 0.1mg/ml BSA) containing enzyme and AMP substrate at 10μM (96-well format). Reaction continued at 37°C for 60 minutes or for a certain time period and terminated by the addition of equal volume (25μl) of AMP-Glo™ Reagent I. Reactions were mixed well and incubated for additional 30 min at 23°C. This was followed by the addition of 50 μl of AMP Detection Solution (10μl of AMP-Glo™ Reagent II per ml of Kinase-Glo® One Solution) and incubated for additional 60 min at 23°C before reading luminescence. • 3 Determination of enzyme activity of purified CD39. Activity of CD39 was determined using reaction buffer that contains 25mM Tris, pH 7.5, 5mM CaCl2, and 0.1mg/ml BSA), with 1μM to 5μM ATP or ADP as substrate, respectively. When ATP is used as a substrate, an equal volume of Kinase-Glo® One Solution was added to CD39 reactions and incubated for 15 min before reading luminescence using a luminometer. […] Reactions were mixed well and incubated for 60min before reading luminescence using luminometer. […]

The target in assay [2] is T2, Recombinant Human 5'-Nucleotidase/CD73 (Homo sapiens, UniProt P21589).
T2 construct: purchased R&D Systems
T2 sequence (P21589 27-574): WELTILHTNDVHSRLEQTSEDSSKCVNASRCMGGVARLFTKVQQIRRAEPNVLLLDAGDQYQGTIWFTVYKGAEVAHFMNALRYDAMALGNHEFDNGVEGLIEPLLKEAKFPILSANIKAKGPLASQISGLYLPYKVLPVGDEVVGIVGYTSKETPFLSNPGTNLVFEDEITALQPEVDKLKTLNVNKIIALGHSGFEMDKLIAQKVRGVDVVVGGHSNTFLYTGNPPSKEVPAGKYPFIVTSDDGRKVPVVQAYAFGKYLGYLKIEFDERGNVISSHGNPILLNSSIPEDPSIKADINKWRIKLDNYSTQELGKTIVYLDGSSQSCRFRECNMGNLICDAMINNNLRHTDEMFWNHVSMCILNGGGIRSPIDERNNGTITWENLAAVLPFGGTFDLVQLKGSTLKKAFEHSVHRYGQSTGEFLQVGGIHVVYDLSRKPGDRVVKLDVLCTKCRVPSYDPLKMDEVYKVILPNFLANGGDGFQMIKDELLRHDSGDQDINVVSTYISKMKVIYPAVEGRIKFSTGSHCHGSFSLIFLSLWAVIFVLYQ
On the set-up: method as in PMID 18302942, PMID 24144488. The following applies: reported by others; ref [25], [26]; cited from earlier work.

By IC50 is commonly meant the concentration that inhibits the measured activity by half. For `Nc1ncnc2c1ncn2[C@@H]1O[C@H](COP(=O)(O)CP(=O)(O)O)[C@@H](O)[C@H]1O` [AMP-CP, Adenosine 5'-(α, β-methylene) diphosphate], the “inhibition of cN-II” value in assay [1] is “minimal or no inhibition; also recorded: no inhibition”. For the same compound, in assay [2], the IC50 is 0.236 µM.
